Here are results for two compounds from patent US20250188118A1, “LIQUID PHASE PEPTIDE SYNTHESIS METHODS” (AMGEN INC., priority 2023, published 2025).

Converted amounts (≈) assume the structure as drawn.

The nature of series [1]: C18 tag solubility in screening solvents (slurry agitated overnight, supernatant assayed by calibrated HPLC). Type of series: physicochemical. To be noted: organic solvent or mixture, thermodynamic from solid, 20 °C. On the procedure:
Provided in this section is an analysis of the solubility of the C18 tag in various organic solvents. All starting materials are either commercially available from Sigma-Aldrich, Oakwood Chemicals, ChemPep Inc., CombiBlocks, or similar vendors, unless otherwise noted, or known in the art and may be synthesized by employing known procedures using ordinary skill.
(3,4,5-trioctadecoxyphenyl)methanol (200 mg) was measured out into a series of 1-dram vials. 1 mL of a screening solvent was added to its corresponding 1-dram vial. The slurry vials were placed on a shaker plate set to 20° C. and agitated overnight. Following agitation, the slurries were transferred to centrifuge tubes and the supernatant was isolated. 100 μL of the isolated supernatant was diluted in 10 mL THF to provides solutions for HPLC analysis using the Agilent 1290 Infinity II system with a Cortecs UPLC C8 1.6 μm 2, 1×150 mm column with a dilution factor of 100. A typical run through the HPLC instrument used a column temperature of 30° C.; an injection volume of 1 μL; a method length of 15 min; a flow rate of 0.3 mL/min; UV Detection: 220 nm; Mobile Phase A: 0.1% TFA in water; Mobile Phase B: 0.1% TFA in ACN; HPLC Gradient: 0 min—95:5 (A:B), 10 min—5:95 (A:B), 13 min—95:5 (A:B). The sample solutions were assayed on a calibrated LC system, and the corresponding C18 tag concentrations are reported below.

For series [2] the following is noted: in water at 23° C.; cited from earlier work.

Take `CCCCCCCCCCCCCCCCCCOc1cc(CO)cc(OCCCCCCCCCCCCCCCCCC)c1OCCCCCCCCCCCCCCCCCC` [C18 Tag, (3,4,5-trioctadecoxyphenyl)methanol]: the solubility in series [1] (solvent 2-Me-THF) was 172 mg/mL (≈ 189 mM); in series [1] (solvent CPME) it was 6.8 mg/mL (≈ 7.44 mM); in series [1] (solvent Heptanes) it was 1.63 mg/mL (≈ 1.78 mM); in series [1] (solvent MTBE), 43.8 mg/mL (≈ 48 mM); in series [1] (solvent PhMe), 57.8 mg/mL (≈ 63.3 mM); in series [1] (solvent THF), at least 200 mg/mL. In series [1] (solvent iPrOAc), the solubility came out at 1.81 mg/mL (≈ 1.98 mM).

For the compound `CC1CCCO1` (centres unmarked) [Example 2-MeTHF, 2-methyltetrahydrofuran], the miscibility in water in series [2] is on record as 14 g/100 g.
